The text below walks through data of patent publication US20240025903A1, “Bicyclic Compounds and Uses Thereof for the Treatment of Diseases” (Athira Pharma, Inc., priority 2020, published 2024).

Data set [1] concerns scopolamine-induced spatial memory deficit in rats. The data set is described as follows: Scopolamine-induced spatial memory deficit in the Morris water maze (compound 1a). Type of data set: in vivo. The conditions noted are these: rat, scopolamine 2 mg/kg IP, escape latency over 5 days, post-test p-value. On the procedure: Exemplary compound 1a was evaluated for its ability to reverse chemically-induced spatial memory deficits in rats in the Morris water maze. The water maze consists of a large round tank (diameter 1.5 m) filled with 23-26° C. water to a depth of −30 cm and the water was clouded with white paint. A round platform was fixed such that it rested 2-3 cm below the surface of the water. High-contrast visual cues were placed around the tank to aid spatial orientation of test animals. Testing consisted of placing an animal into the water facing the tank wall at one of three randomly assigned starting locations and allowing the animal to swim and search for the hidden platform for up to 90 seconds. The time taken for the animal to locate the platform was recorded as the escape latency. Animals were tested 5 times per day with a 30 second rest period between trials. Testing was completed for a total of 5 consecutive days.
Animals were divided into groups (N=12 per group) depending on treatment. Control animals received only empty vehicle. Scopolamine groups received 2 mg/kg scopolamine dissolved in sterile saline by intraperitoneal (IP) injection 30 minutes prior to testing. Test compound groups received test compound at various concentrations by oral gavage (PO) dissolved in 78% sterile saline, 20% polyethylene glycol (PEG-400), and 2% DMSO 40 minutes prior to testing. Escape latencies were recorded for each animal for 5 trials each day for 5 consecutive days. Changes in escape latency curves were statistically analyzed by 2-way ANOVA with Bonferoni post-test.

The nature of data set [2]: Oral availability calculation. Conditions: both sexes, Sprague-Dawley, plasma; rat, dose corrected AUC PO / dose corrected AUC IV x 100. It is filed as in vivo, Sprague-Dawley rats. The text has this:
Oral bioavailability is critical to developing small molecule therapeutics for oral administration. Calculations of oral bioavailability (% F) are accomplished by comparing in vivo pharmacokinetic data (Example B7) using IV dosing as the maximum possible exposure and determining the exposure rate after PO administration. In these studies, dose corrected AUC from PO administration was divided by dose corrected AUC from IV administration and multiplied by 100 to yield the % F. Results are shown in Table 9.

The test system of data set [3] is scopolamine-induced spatial memory deficit in rats. The data set is described as follows: Scopolamine-induced spatial memory deficit in the Morris water maze (compounds 2a and 6a). It is filed as in vivo. The conditions noted are these: rat, scopolamine 3 mg/kg IP, escape latency over 8 days, post-test p-value. The procedure: Exemplary compounds 2a and 6a were evaluated for their ability to reverse chemically-induced spatial memory deficits in rats in the Morris water maze. The water maze consists of a large round tank (diameter 2.1 m) filled with 26-28° C. water to a depth of −30 cm and the water was clouded with white paint. A round platform (13 cm diameter) was fixed such that it rested 2-3 cm below the surface of the water. High-contrast visual cues were placed around the tank to aid spatial orientation of test animals. Testing consisted of placing an animal into the water facing the tank wall at one of three randomly assigned starting locations and allowing the animal to swim and search for the hidden platform for up to 120 seconds. The time taken for the animal to locate the platform was recorded as the escape latency. Animals were tested 5 times per day with a 30 second rest period between trials. Testing was completed for a total of 8 consecutive days.
Animals were divided into groups (N=8 per group) depending on treatment. Control animals received only empty vehicle. Scopolamine groups received 3 mg/kg scopolamine dissolved in sterile saline by intraperitoneal (IP) injection 30 minutes prior to testing. Test compound groups received test compound at various concentrations by oral gavage (PO) dissolved in 48% sterile saline, 50% polyethylene glycol (PEG-400), and 2% DMSO 40 minutes prior to testing. Escape latencies were recorded for each animal for 5 trials each day for 8 consecutive days. Changes in escape latency curves were statistically analyzed by 2-way ANOVA with Bonferoni post-test.

By bioavailability is commonly meant dose-corrected exposure relative to a reference, in per cent. On to `CCC(C)CN1CC2N(C(=O)c3ccc(C(F)(F)F)cc3)CCC(=O)N2[C@@H](C)C1=O` (stereo partly drawn) [Compound 1a], for which the “Cognitive Improvement” value in data set [1] (0.5 mg/kg PO) was “+ (+ indicates post-test p-value between 0.06 and 0.05)”; in data set [1] (2 mg/kg PO), “− (− indicates post-test p-value above 0.06)”; in data set [1] (8 mg/kg PO) it was “− (− indicates post-test p-value above 0.06)”. Also, the bioavailability in data set [2] was 25 to 50%.

For `CCC(C)CN1CC2N(C(=O)c3ccc(OC(F)F)cc3)CCC(=O)N2[C@@H](C)C1=O` (stereo partly drawn) [Compound 2a], the bioavailability in data set [2] is 25 to 50%. Besides, the “Cognitive Improvement” value is listed as “− (− indicates post-test p-value above 0.06)” in data set [3] (0.1 mg/kg PO), “+++ (+++ indicates post-test p-value below 0.01)” in data set [3] (1 mg/kg PO) and “− (− indicates post-test p-value above 0.06)” in data set [3] (10 mg/kg PO).

On to `CCC(C)CN1CC2N(Cc3ccc(C(F)(F)F)cc3)CCC(=O)N2[C@@H](C)C1=O` (stereo partly drawn) [Compound 5a], for which the bioavailability in data set [2] is 1 to 25%.

With `CCC(C)CN1CC2N(Cc3ccc(OC(F)F)cc3)CCC(=O)N2[C@@H](C)C1=O` (stereo partly drawn) [Compound 6a], the bioavailability in data set [2] is 1 to 25%. In addition, the “Cognitive Improvement” value is “− (− indicates post-test p-value above 0.06)” in data set [3] (1 mg/kg PO); “++ (++ indicates post-test p-value between 0.05 and 0.01)” in data set [3] (10 mg/kg PO).

Turning to `CCC(C)CN1CC2N(Cc3ccc(O)nc3)CCC(=O)N2[C@@H](C)C1=O` (stereo partly drawn) [Compound 7a], in data set [2], the bioavailability is less than 1%.

With `CCC(C)CN1CC2N(C(=O)c3ccc(F)cc3)CCC(=O)N2C(C)C1=O` (stereo not drawn) [Compound 11, 1-(4-fluorobenzoyl)-6-methyl-8-(2-methylbutyl)hexahydro-4H-pyrazino[1,2-a]pyrimidine-4,7(6H)-dione], the bioavailability in data set [2] was 25 to 50%.

In the case of `CCC(C)CN1CC2N(C(=O)c3ccc(C(F)(F)F)c(Cl)c3)CCC(=O)N2C(C)C1=O` (stereo not drawn) [Compound 12, 1-(3-chloro-4-(trifluoromethyl)benzoyl)-6-methyl-8-(2-methylbutyl)hexahydro-4H-pyrazino[1,2-a]pyrimidine-4,7(6H)-dione], the bioavailability in data set [2] is 25 to 50%.

For `CC1C(=O)N(CC2CCC2)CC2N(C(=O)c3ccc(OC(F)F)cc3)CCC(=O)N12` (stereo not drawn) [Compound 14], the bioavailability in data set [2] is more than 50%.

On to `CC1C(=O)N(CCC2CCC2)CC2N(C(=O)c3ccc(C(F)(F)F)cc3)CCC(=O)N12` (stereo not drawn) [Compound 20], for which, in data set [2], the bioavailability is more than 50%.

For the molecule `C=CCCN1CC2N(C(=O)c3ccc(C(F)(F)F)cc3)CCC(=O)N2C(C)C1=O` (stereo not drawn) [Compound 22], the bioavailability in data set [2] was 25 to 50%.
